Here are results for ten compounds from paper PMC9017309, “Triazolopyrimidines Target Aerobic Respiration in Mycobacterium tuberculosis” (Antimicrobial Agents and Chemotherapy, 2022).

≈ marks a conversion by molar mass, not a printed value.

For one series, the system named is human HepG2 cells. Conditions: read-out: IC50 HepG2, Glucose; concentration reducing cell number by 50%, 3 days exposure, glucose as carbon source; cited from earlier work.
The subject of series [1] is M. tuberculosis H37Rv-LP (ATCC 25618). The series is described as follows: MIC in liquid medium, parental strain. In kind it is cell-based. The settings on record: Mycobacterium tuberculosis, 120 h, n in brackets.
A short description of a further series: in vitro. The settings on record: human.
Series [2] deals with M. tuberculosis in human THP-1 macrophages. Briefly: Activity against intracellular M. tuberculosis in THP-1 macrophages. Type of series: cell-based. The settings on record: Mycobacterium tuberculosis, THP-1, 72 h, unit inferred, μM.
Series [3] has as its system M. tuberculosis H37Rv-LP (ATCC 25618). The series is described as follows: microbe, parasite or virus in culture. The settings on record: Mycobacterium tuberculosis, 504 h, 24-well agar plates, 3 weeks, read-out: MIC on solid medium, H37Rv-LP. Type of series: cell-based.
In the next series the test system is M. tuberculosis. In kind it is cell-based, Mycobacterium tuberculosis. The settings on record: normalized to DMSO control.
Series [4] concerns M. tuberculosis H37Rv ATCC 27294. Briefly: microbe, parasite or virus in culture. Type of series: cell-based. The settings on record: Mycobacterium tuberculosis, 120 h; 5 days; read-out: MIC, H37Rv ATCC 27294 Parental.

For `FC(F)(F)c1ccc(CCNc2cc(-c3ccccn3)nc3ncnn23)cc1` [TPN-0006267], the IC50 (in general, the concentration needed to halve the response being measured) is above 100 µM in the series with human HepG2 cells, above 100 µM in “in vitro” and 0.21 ± 0.11 µM in series [2]. Further, the figures for the MIC in series [1] and in series [3] were 1.4 ± 1.4 µM (≈ 0.538 µg/mL) and 1.6 µM (≈ 0.615 µg/mL), respectively.

With `CCc1nc2ccc(Cl)cn2c1C(=O)NCc1ccc(N2CCC(c3ccc(OC(F)(F)F)cc3)CC2)cc1` [Molecule Q203, Q203], the “Effect on intracellular ATP levels” value with M. tuberculosis was “depletion of ATP levels at concentrations lower than the MIC”.

Take `CCc1ccc(CCNc2cc(-c3ccccn3)nc3ncnn23)cc1` [TPN-0006288]: the IC50 with human HepG2 cells is 44 µM; in the series “in vitro”, 23 µM; in series [2] it was 0.076 ± 0.032 µM.

For the compound `Cc1ccc(CCNc2cc(-c3ccccc3)nc3ncnn23)cc1` [TPN-0006245], the figures for the IC50 with human HepG2 cells and in the series “in vitro” were 58 µM and 39 µM, respectively. In series [1], the MIC was determined as 2 ± 1.1 µM (≈ 0.659 µg/mL).

Consider `CCc1ccc(CCNc2cc(-c3ccccc3)nc3ncnn23)cc1` [TPN-0006290], for which the values for the IC50 (with human HepG2 cells; in “in vitro”; in series [2]) were 49 µM, 33 µM and 0.18 ± 0.09 µM, respectively.

As for `NC[C@H]1O[C@H](O[C@H]2[C@H](O)[C@@H](O[C@H]3O[C@H](CO)[C@@H](O)[C@H](N)[C@H]3O)[C@H](N)C[C@@H]2N)[C@H](O)[C@@H](O)[C@@H]1O` [kanamycin], the “Effect on intracellular ATP levels” value in the series on M. tuberculosis was “Depletion of ATP was not seen”.

For the compound `COc1ccc(CCNc2cc(-c3ccccn3)nc3ncnn23)cc1` [TPN-0006239], the IC50 is above 100 µM with human HepG2 cells and 73 µM in “in vitro”. Besides, the MIC stood at 9.5 ± 3.5 µM (≈ 3.29 µg/mL) in series [4], 1.1 ± 0.5 µM (≈ 0.381 µg/mL) in series [1] and 1.6 µM (≈ 0.554 µg/mL) in series [3].

Turning to `FC(F)(F)c1ccc(CCNc2cc(-c3ccccc3)nc3ncnn23)cc1` [TPN-0006243], the IC50 in the series with human HepG2 cells and in “in vitro” was above 100 µM in each case. Besides, the figures for the MIC in series [4] and in series [1] were 2.2 ± 0.9 µM (≈ 0.843 µg/mL) and 3.7 ± 2.9 µM (≈ 1.42 µg/mL), respectively.

For the compound `COc1ccc(CCNc2cc(-c3ccccc3)nc3ncnn23)cc1` [TPN-0006218], the concentration for half-maximal inhibition (IC50) was above 100 µM with human HepG2 cells, 65 µM in the series “in vitro” and 0.23 ± 0.08 µM in series [2]. The MIC in series [1] turned out to be 2.6 ± 1.3 µM (≈ 0.898 µg/mL).

Regarding `Clc1ccc(CCNc2cc(-c3ccccn3)nc3ncnn23)cc1` [TPN-0006273], the figures for the IC50 (with human HepG2 cells; in “in vitro”; in series [2]) were 100 µM, 76 µM and 0.19 ± 0.13 µM, respectively.
